According to patent publication US20080255206A1, “Rxr Agonists and Antagonists, Alone or in Combination with Ppar Ligands, in the Treatment of Metabolic and Cardiovascular Diseases” (priority 2005, published 2008):
pIC50: −log10 of the molar value.

Experiments:
[1] = system: myeloperoxidase (MPO) activity; assay: Semi chronic inflammation of mouse ears, MPO activity; type: in vivo, C57BL/6 mice; conditions: 11 d
Procedure: (§1) […] mice of the C57BL/6 strain are used. Inflammation is induced on mouse ears with either AtRA, 9-cis RA or TPA by topical application. Inflammation is measured objectively by determination of the activity of myeloperoxidase (MPO) being directly correlated to the infiltration of polymorphonuclear white blood cells and by the determination of mRNA expression of c-jun, a protein implicated in the AP-1 transduction pathway according to known methods, see e.g. P. L. Stanley et al., Skin Pharmacol. 4, 262-271 (1991) (MPO assay), N. Basset-Sequin et al., J. Invest. Dermatol. 94, 418-422 (1990), F. J. Rauscher et al., Cell 52, 471-480 […], P. Sassone-Corn et al., Nature 326, 507-510 (1987), and M. Pfahl, Endocr. Rev. 14, 651-658, 1993, which are incorporated by reference regarding the experimental method.
(§2) In the “acute inflammation” test, mice are treated topically (epicutaneously), orally or intraperitoneally, daily for 4 days. In the “semi chronic inflammation” test, mice are treated topically according to the schedules given below. For each experiment, a group of at least 4 mice of both sexes are used in the defined condition, regarding placebo, vehicle control, compound, topical formulation, oral formulation, dosage and concentration. The topical vehicle consists of ethanol/PEG 400/water (3:1:1).
(§3) The anti-inflammatory effect of topical RXR antagonists is tested by determination of myeloperoxidase activity in % of vehicle controls. The effect of the RXR antagonist compound 15 is also compared with the well known anti-inflammatory effect of the two corticosteroids, clobetasol dipropionate and betamethasone propionate. For induction of inflammation, AtRA and TPA are applied topically to the skin and the administration of the test compounds, the RXR antagonist compound 15 and the two corticosteroids are given in the following order, according to the schedule, described in: Skin Pharmacol 1991; 4 (4): 262-271, Stanley P L. et.al.: RA or TPA is administered on days 0, 2, 4, 7 and 9, compound 15 or corticosteroids are administered twice daily on day 7, day 8 and day 9 and once on day 10 in the morning. The mice are sacrificed on day 10 in the afternoon.

[2] = system: c-Jun mRNA expression; assay: Semi chronic inflammation of mouse ears, c-Jun mRNA (northern blot); type: in vivo, C57BL/6 mice
Procedure: as §1, §3
In the same experiment, the expression of c-Jun mRNA is determined by northern blot and expressed in percent of the vehicle controls.

[3] = system: humans; conditions: clinical trials by other authors; cited from earlier work
[4] = biological target: T1, RXRγ (Homo sapiens, UniProt P48443); assay: Retinoid binding assay, RXRγ; parameters: made in house; host or cells: E. coli; conditions: [3H] 9-cis retinoic acid 20 nM; read-out: Binding Affinity IC50 RXR γ
T1 sequence (P48443 1-463): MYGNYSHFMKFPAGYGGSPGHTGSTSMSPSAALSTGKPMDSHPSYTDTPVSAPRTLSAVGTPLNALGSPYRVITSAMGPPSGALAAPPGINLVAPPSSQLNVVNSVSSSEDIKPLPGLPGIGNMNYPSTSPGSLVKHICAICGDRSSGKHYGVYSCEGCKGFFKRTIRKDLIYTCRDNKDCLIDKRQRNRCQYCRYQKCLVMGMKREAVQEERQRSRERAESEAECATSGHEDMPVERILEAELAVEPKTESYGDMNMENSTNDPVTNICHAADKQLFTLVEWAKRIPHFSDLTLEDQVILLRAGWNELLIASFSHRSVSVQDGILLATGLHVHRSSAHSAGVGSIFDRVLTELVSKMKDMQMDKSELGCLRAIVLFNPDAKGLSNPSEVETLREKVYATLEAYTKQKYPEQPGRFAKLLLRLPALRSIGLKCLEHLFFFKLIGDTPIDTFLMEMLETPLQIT
Text: The DEF domains of RAR's and the full length RXR's, expressed in E.coli, are used to measure competitive retinoid binding. […] 9-cis retinoic acid (for RXR's), respectively. […] Separation of bound from free radioactivity is achieved by charcoal/dextran (RAR's) or by desalting columns (RXR's). […] Retinoid Activation Assays

[5] = system: myeloperoxidase (MPO) activity; assay: Acute inflammation of mouse ears, MPO activity; type: in vivo, C57BL/6 mice; conditions: TPA 0.005% alone, topical, 4 d
Procedure: as §1, §2
The anti-inflammatory effect of topical RXR antagonist compound 15 is tested by determination of myeloperoxidase activity in % of vehicle treated controls. For induction of inflammation 9-cis RA or TPA are applied topically to the skin, daily for 4 days. The RXR antagonist compound 15 (see Table 1) is administered topically one hour after the application of the inflammation inducing agent. The mice are sacrified 24 hours after the last treatment.

[6] = TPA 0.005% + test compound 0.05% topical
[7] = TPA 0.005% + test compound 0.05%

## betamethasone propionate
[1]; [6]
  MPO activity (% vehicle treated mice): 257 ± 38 % vehicle treated mice
[2]; [7]
  c-Jun mRNA expression (% of vehicle treated mice): 24 % of vehicle treated mice

## CC1=C(/C=C/C(C)=C/C=C/C(C)=C/C(=O)O)C(C)(C)CCC1 [At RA, all-trans retinoic acid]
[1]; At RA 0.05% alone, topical
  MPO activity (% vehicle treated mice): 1371 ± 345 % vehicle treated mice

## Cc1cc2c(cc1C1(c3ccc(C(=O)O)cn3)CC1)C(C)(C)CCC2(C)C [Compound 3, 6-[1-(3,5,5,8,8-Pentamethyl-5,6,7,8-tetrahydro-naphthalen-2yl)-cyclopropyl]-nicotinic acid, reference compound]
[3]
  Serum lipids in clinical trials (humans): marked triglyceridemia
[4]
  pIC50: 7.05

## CCCCCCCCCCCCCC(=O)O[C@@H]1[C@@H](C)[C@@]2(O)[C@@H](C=C(CO)C[C@]3(O)C(=O)C(C)=C[C@@H]23)[C@@H]2C(C)(C)[C@]12OC(C)=O [TPA, 12-O-tetradecanoylphorbol-13-acetate]
[5]
  MPO activity (% vehicle treated mice): 376 ± 72 % vehicle treated mice
[1]; TPA 0.005% alone, topical
  MPO activity (% vehicle treated mice): 572 ± 61 % vehicle treated mice
[2]; TPA 0.005% alone
  c-Jun mRNA expression (% of vehicle treated mice): 163 % of vehicle treated mice

## CCC(=O)O[C@]1(C(=O)CCl)[C@@H](C)C[C@H]2[C@@H]3CCC4=CC(=O)C=C[C@]4(C)[C@@]3(F)[C@@H](O)C[C@@]21C
[1]; [6]
  MPO activity (% vehicle treated mice): 239 ± 43 % vehicle treated mice
[2]; [7]
  c-Jun mRNA expression (% of vehicle treated mice): 43 % of vehicle treated mice
